Source: patent US7700618B2 (Pfizer Inc, priority 2006, dated 2010)

Target: T1, Human CB2 (Homo sapiens, UniProt P34972)
T1 construct: expressed in transfected cells; host or cells: CHO-K1 (Chinese hamster ovary K1) cells
Experiment: Agonist-induced cAMP change in human CB2 transfected CHO-K1 cells
Format: cell-based
Conditions: forskolin 5 μM stimulated cAMP; for EC50: 30 min 37° C.
Protocol: Agonist-induced cAMP Change in Human CB2 Transfected CHO-K1 Cells
Human CB2 transfected Chinese hamster ovary-K1 (CHO-K1) cells were established and grown to 60-80% confluence. The medium was changed to F-12 medium containing 10% dialysed FBS, and the cells were incubated overnight. On the day of the assay, the cells were harvested with PBS/1 mM EDTA, centrifuged and washed with PBS. Cell pellets were resuspended in the incubation buffer (F-12 medium, 20 mM HEPES, 1 mM IBMX, 0.1 mM Ro-20-1724) at the concentration of 1×10^5 cells/ml and pre-incubated for 15 min at room temperature. The agonist samples were diluted from 10 mM stock solution in DMSO and dispensed into 96-well half-area plates (12.5 μl/well) with assay buffer (F-12, 20 mM HEPES). The reaction was initiated by adding the cells (25 μl/well) into the well containing forskolin (12.5 μL/well, final 5 μM) and diluted compounds. After incubation for 30 minutes at 37° C., cAMP-XL665 conjugated, and then the anti-cAMP-cryptase conjugate was added to the lysate (25 μl/well each). After further incubation for 60 minutes at room temperature, measurements were made on the Wallac 1420 ARVOsx multilabel counter (Excitation 320 nm, Emission 665 nm/620 nm, delay time 50 μs, window time 400 μs). Data analysis was made based on the ratio of fluorescence intensity of each well at 620 nm and 665 nm. The equation “sigmoldal dose-response” was used for the determination of EC50 and Emax values.

T1 sequence (P34972 whole entry): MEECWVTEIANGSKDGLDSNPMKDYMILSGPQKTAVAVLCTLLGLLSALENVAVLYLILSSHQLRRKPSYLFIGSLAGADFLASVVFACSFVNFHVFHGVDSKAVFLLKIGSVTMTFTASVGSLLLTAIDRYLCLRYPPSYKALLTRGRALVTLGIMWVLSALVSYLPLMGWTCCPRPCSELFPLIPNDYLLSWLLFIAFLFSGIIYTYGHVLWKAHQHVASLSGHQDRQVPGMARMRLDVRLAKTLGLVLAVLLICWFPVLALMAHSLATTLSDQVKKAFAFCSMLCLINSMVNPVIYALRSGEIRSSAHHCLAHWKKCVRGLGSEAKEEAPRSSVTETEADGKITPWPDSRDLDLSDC

Compound	Emax	EC50
CC(C)(C)Cc1nc2cc(S(=O)(=O)C(C)(C)C(N)=O)ccc2n1CC1CC1 [Example 1, 2-{[1-(Cyclopropylmethyl)-2-(2,2-dimethylpropyl)-1H-benzimidazol-5-yl]sulfonyl}-2-methylpropanamide]	118%	0.91 nM
CC(C)(C)Cc1nc2cc(S(=O)(=O)C3(C(N)=O)CC3)ccc2n1CC1CC1 [Example 2, 1-{[1-(Cyclopropylmethyl)-2-(2,2-dimethylpropyl)-1H-benzimidazol-5-yl]sulfonyl}cyclopropanecarboxamide]	160%	0.15 nM
CC(C)(C)Cc1nc2cc(S(=O)(=O)C3(C(N)=O)CCC3)ccc2n1CC1CC1 [Example 3, 1-{[1-(Cyclopropylmethyl)-2-(2,2-dimethylpropyl)-1H-benzimidazol-5-yl]sulfonyl}cyclobutanecarboxamide]	121%	0.45 nM
CC(C)(C)Cc1nc2cc(S(=O)(=O)C3(C(N)=O)CCOCC3)ccc2n1CC1CC1 [Example 4, 4-{[1-(Cyclopropylmethyl)-2-(2,2-dimethylpropyl)-1H-benzimidazol-5-yl]sulfonyl}tetrahydro-2H-pyran-4-carboxamide]	114%	1.31 nM
CC(C)(C)Cc1nc2cc(S(=O)(=O)C(C)(C)C(N)=O)cnc2n1CC1CC1 [Example 5, 2-{[3-(Cyclopropylmethyl)-2-(2,2-dimethylpropyl)-3H-imidazo[4,5-b]pyridin-6-yl]sulfonyl}-2-methylpropanamide]	118%	5.53 nM
CC(C)(C)Cc1nc2cc(S(=O)(=O)C(C)(C)C(=O)N3CCOCC3)ccc2n1CC1CC1 [Example 6, 1-(Cyclopropylmethyl)-5-[(1,1-dimethyl-2-morpholin-4-yl-2-oxoethyl)sulfonyl]-2-(2,2-dimethylpropyl)-1H-benzimidazole]	136%	2.96 nM
CN(C)C(=O)C(C)(C)S(=O)(=O)c1ccc2c(c1)nc(CC(C)(C)C)n2CC1CC1 [Example 7, 2-{[1-(Cyclopropylmethyl)-2-(2,2-dimethylpropyl)-1H-benzimidazol-5-yl]sulfonyl}-N,N,2-trimethylpropanamide]	141%	1.34 nM
CNC(=O)C(C)(C)S(=O)(=O)c1ccc2c(c1)nc(CC(C)(C)C)n2CC1CC1 [Example 8, 2-{[1-(Cyclopropylmethyl)-2-(2,2-dimethylpropyl)-1H-benzimidazol-5-yl]sulfonyl}-N,2-dimethylpropanamide]	129%	6.68 nM
CC(C)(C)Cc1nc2cc(S(=O)(=O)C(C)(C)C(=O)NCCO)ccc2n1CC1CC1 [Example 9, 2-{[1-(Cyclopropylmethyl)-2-(2,2-dimethylpropyl)-1H-benzimidazol-5-yl]sulfonyl}-N-(2-hydroxyethyl)-2-methylpropanamide]	127%	1.13 nM
CC(C)(C)Cc1nc2cc(S(=O)(=O)C(C)(C)C(=O)NCC(N)=O)ccc2n1CC1CC1 [Example 10]	109%	3.64 nM
CC(C)(C)Cc1nc2cc(S(=O)(=O)C(C)(C)C(=O)NCCN)ccc2n1CC1CC1 [Example 11]	117%	13.7 nM
CC(C)(C)c1nc2cc(S(=O)(=O)C(C)(C)C(N)=O)ccc2n1CC1(O)CCCC1 [Example 12, 2-({2-tert-Butyl-1-[(1-hydroxycyclopentyl)methyl]-1H-benzimidazol-5-yl}sulfonyl)-2-methylpropanamide]	133%	5.34 nM
CC(=O)NCC(C)(C)S(=O)(=O)c1ccc2c(c1)nc(CC(C)(C)C)n2CC1CC1 [Example 13, N-(2-{[1-(Cyclopropylmethyl)-2-(2,2-dimethylpropyl)-1H-benzimidazol-5-yl]sulfonyl}-2-methylpropyl)acetamide]	113%	5.24 nM
CC(C)(C)Cc1nc2cc(S(=O)(=O)C(C)(C)CNS(C)(=O)=O)ccc2n1CC1CC1 [Example 14, N-(2-{[1-(Cyclopropylmethyl)-2-(2,2-dimethylpropyl)-1H-benzimidazol-5-yl]sulfonyl}-2-methylpropyl)methanesulfonamide]	120%	1.59 nM
CN(C)C(=O)NCC(C)(C)S(=O)(=O)c1ccc2c(c1)nc(CC(C)(C)C)n2CC1CC1 [Example 15, N′-(2-{[1-(Cyclopropylmethyl)-2-(2,2-dimethylpropyl)-1H-benzimidazol-5-yl]sulfonyl}-2-methylpropyl)-N,N-dimethylurea]	113%	8.31 nM
CNC(=O)NCC(C)(C)S(=O)(=O)c1ccc2c(c1)nc(CC(C)(C)C)n2CC1CC1 [Example 16, N-(2-{[1-(Cyclopropylmethyl)-2-(2,2-dimethylpropyl)-1H-benzimidazol-5-yl]sulfonyl}-2-methylpropyl)-N′-methylurea]	109%	1.22 nM
CC(C)(C)Cc1nc2cc(S(=O)(=O)C(C)(C)CNC(N)=O)ccc2n1CC1CC1 [Example 17, N-(2-{[1-(Cyclopropylmethyl)-2-(2,2-dimethylpropyl)-1H-benzimidazol-5-yl]sulfonyl}-2-methylpropyl)urea]	120%	1.98 nM
CC(C)(C)Cc1nc2cc(S(=O)(=O)CC(C)(C)NC(N)=O)ccc2n1CC1CC1 [Example 18, N-(2-{[1-(Cyclopropylmethyl)-2-(2,2-dimethylpropyl)-1H-benzimidazol-5-yl]sulfonyl}-1,1-dimethylethyl)urea]	109%	26.4 nM
CC(=O)NC(C)(C)CS(=O)(=O)c1ccc2c(c1)nc(CC(C)(C)C)n2CC1CC1 [Example 19, N-(2-{[1-(Cyclopropylmethyl)-2-(2,2-dimethylpropyl)-1H-benzimidazol-5-yl]sulfonyl}-1,1-dimethylethyl)acetamide]	110%	3.77 nM
